The values below come from a melting point compilation (Tetko et al.; mined from patent text by program, amines drawn as free bases though some values may be those of a salt).

Bounds are passed on as bounds.

As for `O=C(/C=C/c1ccc(C(=O)O)cc1)NOC1CCCCO1` (configuration not stated), the melting point is 182 °C. For `COc1ccc(CNC(=O)c2ccccc2)cc1` the value was 98 to 99 °C; for `CCCC/C=C\CCCCCCCC(=O)Nc1nc(CC(=O)O)cs1`, 110 to 111 °C. Next, `COc1ccc(S(=O)(=O)N2Cc3cc(C)ccc3N(C(=O)c3ccccc3-n3cccn3)CC2C(=O)O)cc1` (configuration not stated): 149 to 151 °C; `C=Cc1ccc(CNc2ccccn2)c(Cl)c1`: 119 to 121 °C. As for `COc1nc(N)nc2c1ncn2[C@@H]1O[C@H](CO)[C@@H](O)[C@@]1(C)F`, the melting point is 199 to 202 °C. As to `O=C(O)c1ccc(NC(=O)[C@H](CO)NS(=O)(=O)c2ccc(Cl)cc2)cc1`, the melting point is 231 to 234 °C. With `O=C(O)CCCCCCCCC1=CC(O)CC1=O` (configuration not stated), the melting point lay in the range of 58 to 66 °C. For the molecule `CC(C)c1cccc(C(C)C)c1-c1cc(OCc2ccccc2)ccc1CC(NC(c1ccccc1)c1ccccc1)C(N)=O` (configuration not stated), the melting point is 148 to 150 °C. As to `COC1Nc2c(O)cccc2C(=O)N2CCCC12` (configuration not stated), the melting point lay within 150 to 153 °C. Next, `CCS(=O)(=O)c1ccc(-c2cc(-c3nc(N)sc3-c3cccc(C)n3)ccn2)cc1`: 219 °C; `Oc1cccc2c1CCC(n1cc[nH]c1=S)C2` (configuration not stated): 263 to 265 °C.

In the case of `COc1ccc(Cn2nnnc2C(=O)Nc2cc(C#N)cc(NC(=O)c3nnnn3Cc3ccc(OC)cc3)c2Cl)cc1`, the melting point was 223 to 225 °C. For `Nc1ccc(Sc2cc(F)cc(F)c2)c(Cl)c1` the value was 156 to 158 °C; for `O=C(Nc1ccccc1)C(=O)N1CCC(Cc2ccccc2)CC1`, 125 to 128 °C; for `CNc1cc(NC)c(C(=O)NCCC(=O)OC)cc1NC(=O)c1ccc(C#N)cc1`, 208 to 210 °C. Next, `CNS(=O)(=O)N=C(NC(=O)OC)C(C)C`: 194 to 199 °C; `CC(=O)c1cccc(-c2cc3c4cc(C)ccc4[nH]c3n(C)c2=O)c1`: 258 to 260 °C. Next, `O=C(Cc1ccc([N+](=O)[O-])cc1)c1c(O)c2cccnc2n(-c2ccccc2)c1=O`: 223 to 227 °C; `CCCCCN1Cc2cc(C)ccc2CCC1=O`: 95 to 97 °C. `C#Cc1ccc(-c2ccc(Br)cc2)cc1` registered a melting point of 145 to 150 °C. For `C[C@@H]1CN(Cc2ccc(COc3cccc4c3CN(C3CCC(=O)NC3=O)C4=O)cc2)C[C@H](C)O1` (some centres not stated) the value was 164 to 166 °C; for `Oc1ccc(-c2[nH]c3ccccc3c2Cn2ccnc2)cc1`, 245 to 247 °C; for `O=S1(=O)NCNc2c(-c3ccccc3)cc(-c3ccccc3)cc21`, 222 to 225 °C.

On to `CS(=O)c1ccccc1C(=O)Nc1ccccc1` (configuration not stated), for which the melting point was in the range of 194 to 195 °C. `CC(=O)NC[C@H]1CN(c2ccc(C(=O)c3cnc4ccc(Cl)cn34)cc2)C(=O)O1` had a melting point of 234 to 235 °C. As to `O=[N+]([O-])c1c(F)cc(Br)c(OCCCl)c1Br`, the melting point turned out to be 56 °C.

Molecule `Cc1cccc(-c2n[nH]cc2-c2ccc(F)c(-c3ccc(N4CCN(C)CC4)nc3)c2)n1` displayed a melting point of 86 °C. Next, `Nc1ncc(Cl)nc1Br`: 102 to 105 °C; `COc1ccccc1OCC1NC(C)(C)C(C(=O)O)S1` (configuration not stated): 136 to 138 °C; `CN1CCN(C2=Nc3ccccc3N=C(N3CCN(C)CC3)C2)CC1`: 227 to 228 °C. As to `CCOC(=O)c1[nH]c2c(c1OCC1CO1)CCCC2` (configuration not stated), the melting point lay within 102 to 104 °C. The molecule `COc1ccc(S(=O)(=O)Nc2c(Nc3ccccc3)ncnc2OC)cc1` yielded a melting point of 159 to 160 °C. Next, `CC(C)(C)OC(=O)N1CCCC(O)(C#Cc2cccc(Cl)c2)C1` (configuration not stated): 128 to 129 °C; `CCCCOc1ccc(S(=O)(=O)N2CC(NCC(O)c3ccc(O)c(NS(C)(=O)=O)c3)C2)cc1` (configuration not stated): 67 to 70 °C; `Nc1c(-c2c[nH]nn2)c(=O)oc2ccccc12`: 265 to 268 °C. For `CC(C)CCOc1ccc(C(=O)C(O)O)cc1` the value was 80 to 85 °C; for `CCOC(=O)c1cc2c(nc1COc1ccc(C(=O)O)cc1)CCCCC2`, 135 to 136 °C; for `C=CCCC(=O)Nc1ccccc1`, 93 to 94 °C. In the case of `CCc1nc2c(C)cc(C)nc2n1Cc1ccc(-c2ccccc2)c(-c2nc(=O)o[nH]2)c1`, the melting point lay in the range of 149 to 152 °C. Take `CCc1cc(S(=O)(=O)C(Br)(Br)Br)ccc1C(N)=O`: the melting point lay in the range of 175 to 177 °C. For `O=C(O)C1=Cc2cc(CO)ccc2OC1C(F)(F)F` (configuration not stated) the value was 178 to 181 °C; for `O=C(Cn1c(-c2ccc(F)cc2)ncc(NC(=O)OCc2ccccc2)c1=O)N[C@@H](Cc1ccccc1)C(=O)C(F)(F)C(=O)NCc1ccccc1`, 185 to 186 °C. Next, `O=C1CCC(NC(=O)OCc2ccccc2)(C(=O)OCc2ccc([N+](=O)[O-])cc2)O1` (configuration not stated): 127 to 128 °C. For `CN1CCCC2CCCC(N(C)C(=O)Cc3ccc(Cl)c(Cl)c3)C21` (configuration not stated) the value was 92 °C; for `O=C(c1ccccc1)c1cc(Cl)ccc1OCCCl`, 73 to 74.5 °C. On to `CN(C(=O)Nc1ccc(Cl)c(Cl)c1)S(=O)C(C)(C)C` (configuration not stated), for which the melting point was 118 °C.

Regarding `Cc1cc(SC(Sc2cc(C)c(O)c(C(C)(C)C)c2)Sc2cc(C)c(O)c(C(C)(C)C)c2)cc(C(C)(C)C)c1O`, the melting point was 171 to 172 °C. For `N#Cc1cc(F)c(N=C=S)cc1O` the value was 178 to 180 °C. With `COc1cc2c(c(OC)c1OC)C(C)(C)CC(C=O)=C2`, the melting point was in the range of 178 to 180 °C.

Molecule `N#CCc1ccc(-c2coc3cc(O)c(O)cc3c2=O)cc1` showed a melting point of 258 to 260 °C. `O=C(Nc1ccc(C(=O)Nc2nnc(-c3cc(Cl)cc(Cl)c3O)s2)cc1)c1ccccc1` yielded a melting point of 301 °C.

Consider `COC(=O)CNC(=O)c1ncccc1S`, for which the melting point was 178 to 179 °C. Molecule `CC(C)C(=O)Oc1cc(-c2cn3c(n2)sc2ccccc23)cc([N+](=O)[O-])c1OC(=O)C(C)C` gave a melting point of 197 to 199 °C.

For `O=C(O)c1ccc2c(c1)NCc1ccccc1O2`, the melting point fell in the range of 251 to 252 °C.

Molecule `COc1cccc(CSc2c(O)cc(-c3ccccc3)oc2=O)c1` returned a melting point of 134 to 136 °C.

Molecule `CON1CCN2C(=O)C(c3cc(C)ccc3C)C(=O)N2CC1` showed a melting point of 167 to 169 °C. For `O[C@H]1CC[C@@H](Nc2ncc3ncnc(Nc4ccc(F)c(Cl)c4)c3n2)CC1` the value was 270 to 275 °C.

Take `Cc1c(-c2ccccc2)oc2c(C=O)cccc2c1=O`: the melting point lay in the range of 124 to 126 °C. In turn, `CCCCCCCCCCCCc1cc(NC(=O)Nc2c(C(C)C)cccc2C(C)C)no1` came in with a melting point of 101 to 107 °C. The molecule `CCc1oc2cccc(O)c2c1C` returned a melting point of 105 to 107 °C. `C=Cc1c(CC)nc(CC)c(CO)c1-c1ccccc1`: the melting point lay within 84 to 85 °C.

`CC1(C)OC(=S)Nc2ccc(Br)cc21` registered a melting point of 221 to 222 °C. Next, `N#Cc1cc(F)c(O)nc1O`: 135 to 140 °C; `CCn1cc(C2(c3cccc(Br)c3)N=C(N)N(C)C2=O)cc1C=O` (configuration not stated): 194 to 195 °C. `O=C(COc1ccc(C(=O)CN2CCN(c3ccncc3)CC2)cc1)NCc1ccccc1` displayed a melting point of 150 to 151 °C. Next, `COc1cc(OC)cc(C(=O)NC(NC(=NC#N)Nc2ccc(C(F)(F)F)nc2)C(C)(Cl)Cl)c1` (configuration not stated): 187 to 189 °C; `O=[N+]([O-])c1c(Br)nn(Cc2ccccc2)c1NCCO`: 110 to 112 °C; `CN(C)S(=O)(=O)NCC(C)(C)N`: 77 to 78 °C. Next, `CC(C)NCCCS(=O)(=O)O`: 240 to 243 °C.

The molecule `O=C(CCCO)NCC1c2ccccc2CCc2ccccc21` had a melting point of 98 to 99 °C. For `CC(=O)Nc1ccc(C=[N+]([O-])Cc2ccccc2)cc1` the value was 231 to 238 °C. For `C=CCOc1cc(C)c(OC(C)=O)c(C)c1C`, the melting point lay within 40 to 41 °C. For `COc1ccc2c(c1)C(=O)C(=O)N2c1ccc(F)cc1` the value was 246 to 247 °C. Next, `Cn1cc(C2CCC(=O)C2)c2cc(F)ccc21` (configuration not stated): 104 to 105 °C; `CC[C@@H](C1CC1)n1cc(Cl)nc(N2CCc3cc(Br)cc(Br)c32)c1=O`: 165 °C. For `CCCCCCCCCCCOc1cccc(CCCC(NC(C)=O)(C(=O)OCC)C(=O)OCC)c1` the value was 38 to 39 °C. Molecule `CC(C)=CCCC(C)=CCOc1ccc(C(=O)NCc2ccncc2)cc1` yielded a melting point of 108 to 110 °C. `O=C1NN=C(c2ccc(C3CCCCC3)cc2)C2CC12` (configuration not stated) gave a melting point of 211 to 212 °C. Consider `CC1(C)OC(=O)C(Oc2ncnc3ccccc23)=C1c1ccc(S(C)(=O)=O)cc1`, for which the melting point was 174 to 177 °C.

`CC(C)=CCN1Cc2c(Br)ccc3[nH]c(=O)n(c23)CC1C` (single isomer, unassigned; (+)): the melting point worked out at 125 °C. For `COc1ccc2[nH]cc(/C(C#N)=C/c3cccc(C(N)=O)c3)c2c1` the value was 234 °C; for `COc1ccc(OC)c2c1C[C@@H](O)[C@@H](N)C2` (relative stereo), 193 to 196 °C. Next, `OCC1OC2CC(O)CC(C2)O1` (configuration not stated): 146 to 149 °C.

For `CC(=O)NNC1=Nc2sccc2C(c2ccccc2)=NC1`, the melting point fell in the range of 194 to 196 °C. Next, `NCC1Cc2cc(-c3ccccc3F)cc(F)c2O1` (configuration not stated): above 250 °C; `C[Si](C)(C)c1ccc2cc(C(=O)Nc3cnc4sc(CO)nc4c3)n(Cc3nccs3)c2c1`: 219 to 220 °C; `CC(=O)OCC(=O)C1C(C)CC2C3CC(F)C4=CC(=O)C=CC4(C)C34OC4CC21C` (configuration not stated): 154 to 162 °C. Turning to `COc1cc(OCCOc2ccc3ccccc3c2)cc(OC)c1C(=O)C(=O)O`, the melting point came to 154 °C. On to `Cc1cc(C(C)(C)C#N)cc(C(C)(C)C#N)c1`, for which the melting point is 126 to 127 °C. As to `CCc1nnc2ccc(-c3cccc(C(F)(F)F)c3)nn12`, the melting point lay within 183 to 185 °C. For `CC(=O)OC1C(C)=C(C)C(=O)N1c1nc2ccc(F)cc2s1` (configuration not stated), the melting point was 180 to 183 °C.

The melting point is the temperature of the solid-liquid transition.
